{"source": "patent US6350410B1", "about": "“Method and composition for inhibiting biological fouling in an irrigation system” (CH20 Incorporated, priority 1995, dated 2002)", "test_system": "pond water supporting algal and protozoan life, inoculated with bacterium escherichia coli", "experiment": "Plate count test on pond water sample inoculated with escherichia coli", "assay_type": "cell-based", "conditions": "for population (plate count): after five days, untreated sample 100 organisms per milliliter", "protocol": "A sample of pond water was obtained. […] The pond water was inoculated with a large population of bacterium escherichia coli. A plate count test was run on the pond water sample to determine the population. […] Dilution was performed with pond water to yield a population that would register on a plate count test. One liter of the sample was removed and left untreated.\nA second one liter portion was taken from the pond water sample. A composition of about 2% active zinc sulfate was mixed with the water sample to yield active zinc at about 0.1 ppm.\nA third one liter portion was taken from the pond water sample. A composition of about 2% active zinc sulfate was mixed with the water sample to yield active zinc at about 10.0 ppm.\nA fourth one liter portion was taken from the pond water sample. A zinc chelated product was prepared containing about 2% active zinc sulfate which was chelated on a 1:1 molar ratio with 1-hydroxyethane 1,1-diphosphonic acid (HEDPA). The chelated zinc product was added to the sample to yield chelated zinc at about 0.1 ppm.\nA fifth one liter portion was taken from the pond water sample. A zinc chelated product was prepared containing about 2% active zinc sulfate which was chelated on a 1:1 molar ratio with HEDPA. The chelated zinc product was added to the sample to yield chelated zinc at about 10.0 ppm."}
{"smiles": "O=S(=O)([O-])[O-].[Zn+2]", "note": "[active zinc, zinc sulfate]", "values": [{"measurement": "population (plate count)", "setting": "about 0.1 ppm in one liter pond water sample", "result": 1, "unit": "organism per milliliter"}, {"measurement": "population (plate count)", "setting": "about 10.0 ppm in one liter pond water sample", "result": 6, "unit": "organisms per milliliter"}, {"measurement": "treatment of biological fouling (in words)", "setting": "about 10.0 ppm, compared to the untreated sample", "result": "effective treatment"}]}
